These results are taken from PMC5920109, “Identification, Expression, and Regulation of an Omega Class Glutathione S-transferase in Rhopalosiphum padi (L.) (Hemiptera: Aphididae) Under Insecticide Stress” (Frontiers in Physiology, 2018).

The test deals with T1, RpGSTO1 (Rhopalosiphum padi, UniProt A0A2U9PFG6).
T1 construct: pET-28a His-tag (tag removal not mentioned), E. coli BL21(DE3), BamHI/HindIII
T1 sequence (A0A2U9PFG6 1-239): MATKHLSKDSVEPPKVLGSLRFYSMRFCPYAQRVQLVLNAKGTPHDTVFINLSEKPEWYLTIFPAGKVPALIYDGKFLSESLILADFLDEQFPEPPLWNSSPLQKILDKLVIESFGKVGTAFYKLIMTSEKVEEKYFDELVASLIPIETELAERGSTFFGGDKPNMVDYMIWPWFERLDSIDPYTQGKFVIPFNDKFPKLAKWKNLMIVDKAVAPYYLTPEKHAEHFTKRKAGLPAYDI
The experiment in a line: spectrophotometric GSH conjugation at […] nm, double reciprocal plot. Particulars: 5 mM GSH; 0.02-0.14 mM CDNB; pH 7.0, 0.1 M sodium phosphate. The class given is biochemical.

`O=[N+]([O-])c1ccc(Cl)c([N+](=O)[O-])c1` [CDNB, 1-chloro-2,4-dinitrobenzene]: the Michaelis-Menten constant (Km) (as a rule, the substrate concentration at which the rate is half of its maximum) came out at 120 µM.
